{"source": "patent US8552064B2", "about": "“Suramin and derivatives thereof as topical microbicide and contraceptive” (Eastern Virginia Medical School, priority 2005, dated 2013)", "key": {"[1]": {"test_system": "HIV-1 IIIB", "assay": "Viral entry inhibition, cell-free HIV-1 IIIB, CD4/coreceptor expressing HeLa cells", "format": "cell-based", "settings": "Human immunodeficiency virus 1, IIIB"}, "[2]": {"test_system": "interleukin release by vaginal cells", "format": "cell-based, human", "experimental": "Interleukin levels were assessed in the supernatant collected after 6 hours of compound-cells incubation using commercial ELISA kits (R&D Diagnostics, Minneapolis, Minn.) according to manufacturer's instructions (also see Fichorova R. N. et al., J. Infect. Dis. 184(4): 418-28, 2001)."}, "[3]": {"test_system": "HIV-1-infected SupT1 cells (strain IIIB)", "assay": "Cell-to-cell transmission (CTC) assay", "format": "cell-based", "settings": "for IC50: Human immunodeficiency virus 1, IIIB, SUP-T1", "experimental": "HIV-1-infected SupT1 cells (strain IIIB), killed by prior exposure to mitomycin C (200 μg/mL) for 1 hour at 37° C., were incubated with each agent and P4-R5 (MAGI) cells for 2 hours at 37° C. Following the incubation period, cells were washed and provided with new media. Successful transmission and subsequent replication events were quantitated using Galacto-Star assay 48 hr post-infection. Infected cells were expressed as a percent of cells infected after mock exposure. In each assay, triplicate wells were tested for each concentration. The results of this assay are provided herein."}, "[4]": {"test_system": "sperm", "assay": "Sperm progressive motility dose-response and time studies, CASA", "format": "cell-based, human"}, "[5]": {"test_system": "HSV-1", "assay": "HSV plaque assay, HSV-1", "format": "cell-based", "settings": "Human alphaherpesvirus 1; read-out: IC50 against HSV-1"}, "[6]": {"test_system": "HIV-1 clinical isolates", "assay": "Clinical isolates in PBMC assay", "format": "cell-based", "experimental": "Peripheral blood mononuclear cells (PBMCs) were obtained from normal hepatitis and HIV-1 negative donors by ficoll hypaque gradient separation. Briefly, anti-coagulated blood is diluted 1:1 with Dulbecco's phosphate buffered saline without Ca^++ and Mg^++ (PBS) and layered over 14 mL of Lymphocyte separation media in a 50 ml centrifuge tube. Tubes were then centrifuged for 30 minutes at 600×g. Banded PBMCs were gently aspirated from the resulting interface and subsequently washed 2× with PBS by low speed centrifugation. The mononuclear cells were counted, viability was determined by Trypan Blue dye exclusion and the cells were resuspended in RPMI 1640 medium supplemented with 15% FBS (heat inactivated), 2 mM L-glutamine, 100 U/mL penicillin, 100 μg/mL streptomycin, and 10 μg/mL gentamycin with 20 U/mL recombinant IL-2 (R&D Systems, Minneapolis, Minn.). […]\nHuman peripheral blood mononuclear cells from a minimum of two donors, that have been stimulated with PHS- and IL-2, were counted and their viability was determined by Trypan Blue dye exclusion and mixed in equal rations. Pooled donors were used to minimize the variability observed between individual donors, which results from quantitative and qualitative differences in HIV infection, and overall response to the PHA and IL-2 of primary lymphocyte populations. […]"}, "[7]": {"test_system": "sperm", "assay": "Sperm viability, membrane integrity (HOST)", "format": "cell-based", "experimental": "Viability of sperm was assessed by a sperm membrane integrity evaluation as described in Jeyendran R. S. et al., J. Reprod. Fertil., 70: 219-28 (1984). Aliquots of sperm samples were incubated with suramin or N-9 test compounds. The reaction was terminated by the addition of 1.5 mL Ham's F10. Sperm were centrifuged and the pellet was resuspended in 200 μL of medium. Sperm viability was assessed by placing 100 μL of the sperm suspension in 900 μL of hypo-osmotic swelling test (HOST) medium for 30 min. Coiled sperm tails are a reflection of intact sperm membrane permeability and indicate viable sperm. A minimum of 200 cells were microscopically assessed from each sample."}, "[8]": {"test_system": "CaSki cells", "assay": "Cytotoxicity in the anti-herpes study", "format": "cell-based, human", "settings": "highest concentration tested (1000 μg/mL)"}}, "note": "Like-named read-outs stand apart in the source and are kept apart here.", "data": [{"smiles": "Cc1ccc(C(=O)Nc2ccc(S(=O)(=O)O)c3cc(S(=O)(=O)O)cc(S(=O)(=O)O)c23)cc1NC(=O)c1cccc(NC(=O)Nc2cccc(C(=O)Nc3cc(C(=O)Nc4ccc(S(=O)(=O)O)c5cc(S(=O)(=O)O)cc(S(=O)(=O)O)c45)ccc3C)c2)c1", "note": "[Suramin, 8,8′-(carbonylbis(imino-3,1-phenylenecarbonylimino(4-methyl-3,1-phenylene)carbonylimino))bis-1,3,5-naphthalene trisulfonic acid]", "values": [{"measurement": "IC50", "setting": "[1]; HeLa, 2 h-incubation, read-out: IC50 against IIIB, viral entry assay", "result": 18.5, "unit": "µg/mL"}, {"measurement": "IC50", "setting": "[1]; CD4/coreceptor expressing HeLa cells, incubation 2 hours, read-out: IC50, Cell-Free Strains IIIB", "result": 18.5, "unit": "µg/mL"}, {"measurement": "N-9-induced release of IL-1 and IL-8 by vaginal cells", "setting": "[2]", "result": "decreased N-9-induced release of IL-1 and IL-8"}, {"measurement": "Potency, Proinflammatory Cytokines (ELISA)", "setting": "[2]", "result": "None"}, {"measurement": "stimulation of proinflammatory cytokines", "setting": "[2]", "result": "no stimulation of proinflammatory cytokines"}, {"measurement": "release of IL-1β by cultured vaginal cells", "setting": "[2]; human, 6 h", "result": "did not induce the release of IL-1β"}, {"measurement": "Potency, HIV-1 CTC", "setting": "[3]", "result": "High"}, {"measurement": "IC50", "setting": "[3]; CD4-dependent cell-to-cell transmission, API, read-out: IC50 CTC assay", "result": 93.5, "unit": "µg/mL"}, {"measurement": "IC50", "setting": "[3]; not API (Table 8: 2% suramin in Replens), read-out: IC50 CTC, second value beside API", "result": 9.6, "unit": "µg/mL"}, {"measurement": "sperm motion parameters by CASA", "setting": "[4]; 1 mM", "result": "no significant changes in sperm motion parameters"}, {"measurement": "sperm motion characteristics vs control", "setting": "[4]; 7.5 mg/mL", "result": "did not appear to be significantly different"}, {"measurement": "sperm progressive motility and membrane integrity vs solvent control", "setting": "[4]; 1-10,000 μg/mL or 5-0.07 mM", "result": "no alteration of sperm progressive movement and viability"}, {"measurement": "sperm motility, time-dependent study", "setting": "[4]; suboptimal doses, prolonged incubation (e.g., 30 min.)", "result": "no alteration of sperm motility"}, {"measurement": "IC50", "setting": "[5]", "result": 30, "unit": "µg/mL"}, {"measurement": "Potency, HIV-1 Clin Isolates", "setting": "[6]", "result": "High"}, {"measurement": "IC50", "setting": "[6]; Human immunodeficiency virus 1, PBMC, read-out: IC50 Clin Isolates", "result": 14.6, "unit": "µg/mL"}, {"measurement": "sperm viability vs solvent-treated controls", "setting": "[7]; 10-0.001 mg/mL", "result": "No significant differences"}, {"measurement": "Potency, Viability (HOST)", "setting": "[7]; time- and dose-dependent exp.", "result": "None"}, {"measurement": "cytotoxicity", "setting": "[8]", "result": "not being significantly cytotoxic"}]}]}
